From paper PMC12137978, “Design, molecular characterization and therapeutic investigation of a novel CCR8 peptide antagonist that attenuates acute liver injury by inhibiting infiltration and activation of macrophages” (Acta Pharmaceutica Sinica. B, 2025)
Where no end group is shown, it is not given here.

T1: CCR8 on LPS/IFNγ-activated RAW264.7 macrophages (Mus musculus, UniProt P56484)
T1 construct: endogenous in cells
T1 sequence (P56484 1-353): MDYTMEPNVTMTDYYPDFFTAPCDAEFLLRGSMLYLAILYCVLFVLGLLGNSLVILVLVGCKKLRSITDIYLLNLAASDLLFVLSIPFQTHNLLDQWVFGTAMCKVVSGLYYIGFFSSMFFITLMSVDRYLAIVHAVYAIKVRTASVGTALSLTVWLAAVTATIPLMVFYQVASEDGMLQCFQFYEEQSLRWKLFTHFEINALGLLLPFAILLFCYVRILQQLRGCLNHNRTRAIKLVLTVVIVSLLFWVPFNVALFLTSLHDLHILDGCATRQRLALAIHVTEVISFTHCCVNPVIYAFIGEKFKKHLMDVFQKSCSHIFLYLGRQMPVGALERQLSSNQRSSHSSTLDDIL


Columns and labels:
[1] = tested on: C57BL/6 mice with CCl4-induced acute liver injury; assay: CCl4-induced acute liver injury mouse model; assay type: in vivo; conditions: 1 μmol/kg twice daily, 2 days after CCl4
Description: All the animal experiments were carried out according to the ethical guidelines for the Care and Use of Laboratory Animals (Utrecht University, The Netherlands). CCl4 was prepared in olive oil ([…], 63.76 mg/mL) and AP8ii (1 μmol/kg) and R243 (1 μmol/kg) were prepared in hydroxypropyl-β-cyclodextrin (10%) and Kolliphor HS15 (5%) containing MilliQ water (85%). Male C57BL/6 mice (12 weeks old) received a single intraperitoneal injection (IP) of olive oil (healthy n = 9) or 0.2 mL/kg (318.8 mg/kg) CCl4 (vehicle n = 9, AP8 n = 9 and R243 n = 9) on Day 1. On Days 2 and 3, the CCl4-treated mice received vehicle, 1 μmol/kg AP8 (1.157 mg/kg) or 1 μmol/kg R243 (0.35744 mg/kg) twice daily. […] Total alanine aminotransferase (ALT) and aspartate transferase (AST) levels were determined in the plasma samples as per standard biochemical assays.
Cell suspension were prepared from freshly collected liver tissues using the TissueGrinder (TG, Fast Forward Discoveries GmbH, Mannheim, Germany) as detailed earlier. […] Cells were washed 3 times, stained with rat anti-mouse fluorescent antibodies (CD45-APC, CD11b-PE and F4/80-PE/Cy7, 0.2 μg/100 μL, Biolegend) for 1 h, Hoechst 33,342 (10 μg/100 μL, Thermo Fisher) for 30 min, and analyzed within 7 days. […]

[2] = AP8ii peptide stability in human serum by analytic HPLC; assay type: in vitro ADME; conditions: 37 °C
Description: Analytic HPLC measurements were conducted in an Agilent 1260 Infinity II Liquid Chromatography system, equipped with a Polaris C18 column and a UV–Vis detector. The samples were analyzed with a mobile phase of MilliQ (solvent A) and acetonitrile (solvent B), both containing 0.1% v/v of formic acid, using a 1 mL/min flow rate within a run of 22 min. The gradient ramp was from 1% solvent B up to 60% solvent B in 15 min, then from 60% solvent B to 99% solvent in 5 min, finally 2 min at 99% of solvent B. Each injection used 50 μL, out of the 150 μL in the vial. Detection was performed at λ = 280 nm. Integration of the signals (e.g., peak area) in the chromatogram was performed using OpenLab CDS (data analysis software).
An adapted protocol based on[43] was followed for analysis. In a vial, 475 μL of 1 mmol/L peptide solution was mixed with 50 μL of human serum (making 0.95 mmol/L peptide in 10 vol% serum). The sample was incubated at 37 °C for increasing time. At 0, 1, 2, 4 and 24 h, an aliquot of 125 μL was taken from the vial, quenched with 50 μL of 10% TFA solution in MilliQ and centrifuged for 1 min at 13,000 rpm. Then 150 μL of the supernatant was taken for analysis. Control samples containing only peptide (e.g., without serum) and only human serum (e.g., without peptide) were included. All measurements were conducted in duplicates. Data of peak absolute area were expressed as mean ± standard deviation (SD).

RAW264.7 macrophages = assay: Alamar Blue cell viability assay, RAW264.7; assay type: cell-based, mouse; conditions: 10 μmol/L, 24 h, with or without LPS/IFNγ; three independent experiments
Description: To assess the effects of AP8ii on the cell viability, cells were plated in 24-well plates, cultured overnight and incubated with AP8ii or R243 (10 μmol/L) with or without 100 ng/mL LPS and 10 ng/mL IFNγ (for 24 h, cell viability assays were performed using Alamar Blue reagent (Invitrogen, Carlsbad, CA, USA) as per manufacturer's instructions. The results are represented as% cell viability normalized to untreated control cells (at 100%). All measurements were performed in triplicates in three independent experiments.

[3] = biological target: T1, CCR8 on LPS/IFNγ-activated RAW264.7 macrophages; assay: Competitive peptide binding study (co-incubation and pre-incubation)
Description: For competitive studies, the peptide binding protocol was used however competition with R243, CCL1 and anti-CCR8 antibody was performed. Two types of competitive studies were performed—co-incubation and pre-incubation where macrophages were either co-incubated with equimolar concentration of R243 (10 μmol/L), CCL1 (100 ng/mL) or anti-CCR8 antibody (5.0 μg/mL, Cat. No. MAB-8324, Novus biologicals, […], USA) and AP8ii (10 μmol/L), or preincubated with R243 (10 μmol/L), CCL1 (100 ng/mL) or anti-CCR8 antibody (5.0 μg/mL) for 2 h followed by addition of AP8ii (10 μmol/L) for an additional 4 h. Finally, images were captured at 10 ×, 20 × and 40 ×, and RhB intensity was analyzed using ImageJ software and normalized to the number of nuclei using DAPI.

| Molecule | body weight during treatment [1] | remaining at 24 h, 0.95 mmol/L ([2]; 0.95 mmol/L peptide in 10 vol% human serum, 24 h, TFA quench, analytic HPLC C18, UV 280 nm, peak area, duplicates, read-out: peptide remained intact after 24 h of incubation) [%] | half-life at 0.95 mmol/L ([2]; 0.95 mmol/L peptide in 10 vol% human serum, analytic HPLC UV 280 nm, read-out: t1/2 in human serum) [h] | stability on exposure to serum (peak absolute area) ([2]; 10 vol% human serum, first 4 h, analytic HPLC UV 280 nm) | toxicity (Alamar blue-based metabolic assay) (RAW264.7 macrophages) | AP8ii binding blocked, co-incubation study ([3]; competitor (R243 10 μmol/L, CCL1 100 ng/mL, anti-CCR8 antibody 5.0 μg/mL) co-incubated with RhB-labeled AP8ii 10 μmol/L 4 h) [%] | AP8ii binding blocked, pre-incubation study ([3]; competitor (R243 10 μmol/L, CCL1 100 ng/mL, anti-CCR8 antibody 5.0 μg/mL) preincubated 2 h, then RhB-labeled AP8ii 10 μmol/L 4 h) [%] |
| --- | --- | --- | --- | --- | --- | --- | --- |
| YEWRFYHG [AP8ii, Tyr-Glu-Trp-Arg-Phe-Tyr-His-Gly] | increased | > 82 | > 24 | remained stable during the first 4 h | no significant toxicity |  |  |
| CCL1: Human Recombinant I-309 (CCL1), CCR8 ligand (300-37-B, Tebu-bio) (protein, UniProt P22362 24-96, looked up) C-C motif chemokine 1: KSMQVPFSRCCFSFAEQEIPLRAILCYRNTSSICSNEGLIFKLKRGKEACALDTVGWVQRHRKMLRHCPSKRK |  |  |  |  |  | ~20 | ~30 |
